≈ marks a conversion by molar mass, not a printed value.

In experiment [1] the test system is Sclerotinia sclerotiorum. As to the kind of experiment: Antifungal activity against Sclerotinia sclerotiorum in synthetic medium assessed as inhibition of mycelial growth after 2 days. Type of experiment: functional, organism-based. The following applies: 48 h.
Experiment [2] has as its system Sclerotinia sclerotiorum. As to the kind of experiment: Antifungal activity against carbendazim and dimethachlon-sensitive Sclerotinia sclerotiorum YZ116 assessed as inhibition of mycelial growth after 2 days. The experiment is classed as functional, organism-based. Conditions: YZ116, 48 h.
Experiment [3] has as its system Sclerotinia sclerotiorum. Nature of the experiment: Antifungal activity against carbendazim-resistant and dimethachlon-sensitive Sclerotinia sclerotiorum ZJ288 assessed as inhibition of mycelial growth after 2 days. The experiment is classed as functional, organism-based. The following applies: ZJ288, 48 h.
The test system of experiment [4] is Sclerotinia sclerotiorum. As to the kind of experiment: Antifungal activity against carbendazim and dimethachlon-sensitive Sclerotinia sclerotiorum YZ112 assessed as inhibition of mycelial growth after 2 days. Conditions: YZ112, 48 h. Type of experiment: functional, organism-based.
Experiment [5] has as its system Sclerotinia sclerotiorum. Nature of the experiment: Antifungal activity against carbendazim-resistant and dimethachlon-resistant Sclerotinia sclerotiorum ZJ288-3 assessed as inhibition of mycelial growth after 2 days. The experiment is classed as functional, organism-based. Conditions: ZJ288-3, 48 h.
Experiment [6] concerns Sclerotinia sclerotiorum. Nature of the experiment: Antifungal activity against carbendazim-resistant and dimethachlon-sensitive Sclerotinia sclerotiorum CZ57 assessed as inhibition of mycelial growth after 2 days. Type of experiment: functional, organism-based. The following applies: CZ57, 48 h.
Experiment [7] deals with Sclerotinia sclerotiorum. Nature of the experiment: Antifungal activity against carbendazim-resistant and dimethachlon-sensitive Sclerotinia sclerotiorum ZJ47 assessed as inhibition of mycelial growth after 2 days. The experiment is classed as functional, organism-based. The following applies: ZJ47, 48 h.
The test system of experiment [8] is Sclerotinia sclerotiorum. As to the kind of experiment: Antifungal activity against carbendazim-resistant and dimethachlon-sensitive Sclerotinia sclerotiorum SZ48 assessed as inhibition of mycelial growth after 2 days. The experiment is classed as functional, organism-based. The following applies: SZ48, 48 h.
The subject of experiment [9] is Sclerotinia sclerotiorum. As to the kind of experiment: Antifungal activity against Sclerotinia sclerotiorum in oilseed rape field assessed as disease control at 250/ha measured 1 week before harvest. Type of experiment: functional.
Experiment [10] deals with Sclerotinia sclerotiorum. Nature of the experiment: Antifungal activity against carbendazim-resistant and dimethachlon-resistant Sclerotinia sclerotiorum ZJ288-2 assessed as inhibition of mycelial growth after 2 days. The experiment is classed as functional, organism-based. The following applies: ZJ288-2, 48 h.
The test system of experiment [11] is Sclerotinia sclerotiorum. Nature of the experiment: Antifungal activity against carbendazim and dimethachlon-sensitive Sclerotinia sclerotiorum YZ114 assessed as inhibition of mycelial growth after 2 days. Type of experiment: functional, organism-based. Conditions: YZ114, 48 h.
For experiment [12], the system named is Sclerotinia sclerotiorum. Nature of the experiment: Antifungal activity against Sclerotinia sclerotiorum in czapek medium assessed as inhibition of mycelial growth after 2 days. Type of experiment: functional, organism-based. The following applies: 48 h.
For experiment [13], the system named is Sclerotinia sclerotiorum. Nature of the experiment: Antifungal activity against carbendazim and dimethachlon-sensitive Sclerotinia sclerotiorum SZ47 assessed as inhibition of mycelial growth after 2 days. The experiment is classed as functional, organism-based. The following applies: SZ47, 48 h.
In experiment [14] the test system is Sclerotinia sclerotiorum. Nature of the experiment: Antifungal activity against carbendazim-resistant and dimethachlon-sensitive Sclerotinia sclerotiorum TZ83 assessed as inhibition of mycelial growth after 2 days. The experiment is classed as functional, organism-based. Conditions: TZ83, 48 h.
Experiment [15] concerns Sclerotinia sclerotiorum. Nature of the experiment: Antifungal activity against carbendazim-resistant and dimethachlon-sensitive Sclerotinia sclerotiorum ZJ44 assessed as inhibition of mycelial growth after 2 days. Conditions: ZJ44, 48 h. Type of experiment: functional, organism-based.
Experiment [16] has as its system Sclerotinia sclerotiorum. As to the kind of experiment: Antifungal activity against Sclerotinia sclerotiorum in oilseed rape field assessed as disease control at 187.5/ha measured 1 week before harvest. The experiment is classed as functional.
The test system of experiment [17] is Sclerotinia sclerotiorum. As to the kind of experiment: Antifungal activity against Sclerotinia sclerotiorum in oilseed rape field assessed as disease control at 125/ha measured 1 week before harvest. The experiment is classed as functional.
Experiment [18] concerns Sclerotinia sclerotiorum. As to the kind of experiment: Antifungal activity against carbendazim-resistant and dimethachlon-resistant Sclerotinia sclerotiorum CZ57-3 assessed as inhibition of mycelial growth after 2 days. The experiment is classed as functional, organism-based. Conditions: CZ57-3, 48 h.
Experiment [19] has as its system Sclerotinia sclerotiorum. Nature of the experiment: Antifungal activity against carbendazim-resistant and dimethachlon-resistant Sclerotinia sclerotiorum CZ57-2 assessed as inhibition of mycelial growth after 2 days. Type of experiment: functional, organism-based. Conditions: CZ57-2, 48 h.
The subject of experiment [20] is Sclerotinia sclerotiorum. Nature of the experiment: Antifungal activity against Sclerotinia sclerotiorum in oilseed rape field assessed as disease control at 80/ha measured 1 week before harvest. Type of experiment: functional.
Experiment [21] relates to Sclerotinia sclerotiorum. As to the kind of experiment: Antifungal activity against carbendazim-resistant and dimethachlon-resistant Sclerotinia sclerotiorum CZ57-1 assessed as inhibition of mycelial growth after 2 days. Type of experiment: functional, organism-based. The following applies: CZ57-1, 48 h.
The subject of experiment [22] is Sclerotinia sclerotiorum. As to the kind of experiment: Antifungal activity against carbendazim and dimethachlon-sensitive Sclerotinia sclerotiorum SZ62 assessed as inhibition of mycelial growth after 2 days. The experiment is classed as functional, organism-based. The following applies: SZ62, 48 h.
In experiment [23] the test system is Sclerotinia sclerotiorum. As to the kind of experiment: Antifungal activity against carbendazim-resistant and dimethachlon-resistant Sclerotinia sclerotiorum ZJ288-1 assessed as inhibition of mycelial growth after 2 days. The experiment is classed as functional, organism-based. Conditions: ZJ288-1, 48 h.
Experiment [24] has as its system Sclerotinia sclerotiorum. As to the kind of experiment: Antifungal activity against Sclerotinia sclerotiorum in PDA plates assessed as inhibition of mycelial growth after 2 days. Type of experiment: functional, organism-based. Conditions: 48 h.
The subject of experiment [25] is Sclerotinia sclerotiorum. As to the kind of experiment: Antifungal activity against carbendazim-resistant and dimethachlon-sensitive Sclerotinia sclerotiorum YC35 assessed as inhibition of mycelial growth after 2 days. The following applies: YC35, 48 h. The experiment is classed as functional, organism-based.
Experiment [26] relates to Sclerotinia sclerotiorum. Nature of the experiment: Antifungal activity against Sclerotinia sclerotiorum in oilseed rape field assessed as disease control at 750/ha measured 1 week before harvest. The experiment is classed as functional.
The test system of experiment [27] is Sclerotinia sclerotiorum. As to the kind of experiment: Antifungal activity against Sclerotinia sclerotiorum in oilseed rape field assessed as disease control at 690/ha measured 1 week before harvest. The experiment is classed as functional.

A word on the EC50: it is the midpoint of the concentration-response curve. As for `O=C(Nc1ccccc1-c1ccc(Cl)cc1)c1cccnc1Cl` [BOSCALID], the EC50 in experiment [1] worked out at 0.12 µg/mL (≈ 0.35 µM); in experiment [2], 0.195 µg/mL (≈ 0.568 µM); in experiment [3] it was 0.18 µg/mL (≈ 0.524 µM); in experiment [4], 0.211 µg/mL (≈ 0.615 µM); in experiment [5], 0.262 µg/mL (≈ 0.763 µM); in [6], 0.186 µg/mL (≈ 0.542 µM). Moreover, the EC50 was 0.188 µg/mL (≈ 0.548 µM) in [7]; 0.168 µg/mL (≈ 0.489 µM) in experiment [8]; 0.126 µg/mL (≈ 0.367 µM) in experiment [10]; 0.195 µg/mL (≈ 0.568 µM) in experiment [11]; 0.13 µg/mL (≈ 0.379 µM) in experiment [12]; 0.181 µg/mL (≈ 0.527 µM) in [13]. The half-maximal effective concentration (EC50) in experiment [14] turned out to be 0.19 µg/mL (≈ 0.554 µM); in experiment [15], 0.223 µg/mL (≈ 0.65 µM); in experiment [18], 0.163 µg/mL (≈ 0.475 µM); in experiment [19], 0.183 µg/mL (≈ 0.533 µM); in experiment [21], 0.115 µg/mL (≈ 0.335 µM); in experiment [22], 0.17 µg/mL (≈ 0.495 µM). The figures for the half-maximal effective concentration (EC50) in experiment [23], in experiment [24] and in [25] were 0.195 µg/mL (≈ 0.568 µM), 0.17 µg/mL (≈ 0.495 µM) and 0.195 µg/mL (≈ 0.568 µM), respectively. In addition, the Activity in experiment [9] was found to be 75.1%; in [16], 69%; in experiment [17], 65.2%; in [20], 49.7%.

For the compound `COC(=O)Nc1nc2ccccc2[nH]1` [CARBENDAZIM], the EC50 is 0.137 µg/mL (≈ 0.717 µM) in [2]; 0.147 µg/mL (≈ 0.769 µM) in experiment [3]; 0.106 µg/mL (≈ 0.554 µM) in experiment [4]; over 100 µg/mL in experiment [5]; 0.168 µg/mL (≈ 0.879 µM) in experiment [6]; over 100 µg/mL in experiment [7]. The half-maximal effective concentration (EC50) is over 100 µg/mL in experiment [8]; over 100 µg/mL in experiment [10]; 0.134 µg/mL (≈ 0.701 µM) in experiment [11]; 0.177 µg/mL (≈ 0.926 µM) in experiment [13]; over 100 µg/mL in experiment [14]; over 100 µg/mL in experiment [15]. Besides, the EC50 is over 100 µg/mL in experiment [18]; over 100 µg/mL in experiment [19]; over 100 µg/mL in experiment [21]; 0.186 µg/mL (≈ 0.973 µM) in [22]; over 100 µg/mL in experiment [23]; over 100 µg/mL in experiment [25]. In experiment [26], the Activity is given as 18.9%.

As for `O=C1CCC(=O)N1c1cc(Cl)cc(Cl)c1` [DIMETHACHLON], the EC50 came to 0.346 µg/mL (≈ 1.42 µM) in experiment [2]; 0.397 µg/mL (≈ 1.63 µM) in experiment [3]; 0.401 µg/mL (≈ 1.64 µM) in experiment [4]; 68 µg/mL (≈ 279 µM) in experiment [5]; 0.406 µg/mL (≈ 1.66 µM) in experiment [6]; 0.367 µg/mL (≈ 1.5 µM) in experiment [7]. Besides, the EC50 in experiment [8] was determined as 0.364 µg/mL (≈ 1.49 µM); in [10], 86.8 µg/mL (≈ 356 µM); in [11], 0.365 µg/mL (≈ 1.5 µM); in experiment [13] it was 0.321 µg/mL (≈ 1.32 µM); in experiment [14], 0.335 µg/mL (≈ 1.37 µM); in [15], 0.317 µg/mL (≈ 1.3 µM). Further, the concentration for a half-maximal effect (EC50) came out at 125 µg/mL (≈ 511 µM) in experiment [18]; 152 µg/mL (≈ 622 µM) in experiment [19]; 166 µg/mL (≈ 682 µM) in [21]; 0.351 µg/mL (≈ 1.44 µM) in experiment [22]; 92.4 µg/mL (≈ 378 µM) in experiment [23]; 0.306 µg/mL (≈ 1.25 µM) in [25]. For the same compound, the Activity in experiment [27] is 44.6%.

Source of the values: ChEMBL document CHEMBL3045475, “Sensitivity of Sclerotinia sclerotiorum from oilseed crops to boscalid in Jiangsu Province of China” (Crop Prot, 2009).
